Measurements taken from US9133187B2, “Serine/threonine kinase inhibitors” (ARRAY BIOPHARMA INC., priority 2011, dated 2015).

What was measured:
[1] = system: PMA-stimulated P90RSK(Ser380) phosphorylation in HepG2 cells; experiment: Cellular P90RSK(Ser380) Phosphorylation Assay; assay type: cell-based; details: Homo sapiens, 1.5 h compound incubation, PMA stimulation, pP90RSK(Ser380) normalized to GAPDH, read-out: Cell Assay IC50
Experimental: Inhibition of PMA-stimulated P90RSK(Ser380) phosphorylation was determined by the following in vitro cellular mechanistic assay, which comprises incubating cells with a compound for 1.5 hours and quantifying fluorescent pP90RSK(Ser380) signal on fixed cells and normalizing to GAPDH signal.
Materials and Methods: HepG2 cells were obtained from ATCC and grown in DMEM supplemented with 10% fetal bovine serum. Cells were plated in 96-well plates at 35,000 cells/well and allowed to attach overnight at 37° C./5% CO2. Diluted compounds were then added at a final concentration of 0.5% DMSO. After 1.5 hour compound incubation, cells were stimulated with the addition of PMA (phorbol 12-myristate 13-acetate) at a final concentration of 100 ng/mL; the PMA stimulation was a 30-minute incubation at 37° C./5% CO2. After the 30-minute PMA stimulation, cells were washed with PBS and fixed in 3.7% formaldehyde in PBS at room temperature for 15-20 minutes. This was followed by another wash in PBS and then permeabilization in 100% MeOH at room temperature for 10-15 minutes. Following the permeabilization incubation, cells were washed in PBS/0.05% Tween-20, followed by a block in Odyssey blocking buffer (LI-COR Biosciences) for at least 1 hour. Antibodies to phosphorylated P90RSK(Ser380) (Cell Signaling #9335, rabbit monoclonal) and GAPDH (Fitzgerald 10R-G109a, mouse monoclonal) were added to the cells and incubated overnight at 4° C. pP90RSK(Ser380) antibody was used at a 1:250 dilution; GAPDH was used at a 1:10,000 dilution. After washing with PBS/0.05% Tween-20, the cells were incubated with fluorescently-labeled secondary antibodies (Anti-rabbit-Alexa Flour680, Invitrogen Cat#A21109; Anti-mouse-IRDye800CW, Rockland Inc. Cat#610-131-121) for 1 hour. Both secondary antibodies were used at a 1:1000 dilution. Cells were then washed and analyzed for fluorescence at both wavelengths using the Odyssey Infrared Imaging System (LI-COR Biosciences). Phosphorylated P90RSK(Ser380) signal was normalized to GAPDH signal. Representative date is in TABLE III (infra).

[2] = molecular target: human ERK-2 (Mitogen Activated Kinase 1) (Homo sapiens (Human), UniProt P28482); experiment: ERK-2 Enzymatic Assay; assay type: biochemical; details: 5 nM ERK-2, 25 μM ATP, Omnia peptide S/T17; read-out: ERK Inhibition IC50
Experimental: Compounds were tested in an enzymatic assay using human ERK-2 (Mitogen Activated Kinase 1), recombinantly expressed as an n-terminal 6-His fusion protein in E. coli and corresponding to aa 8-360. The substrate used was the fluorescent Omnia peptide S/T17 (Invitrogen of Carlsbad, Calif.; Cat. KNZ1171C). Test compounds were diluted in DMSO in 3-fold serial dilutions at 100× final concentrations. […] The assay was run at ambient temperature in a white 384-well polypropylene plate (Nunc, Inc of Naperville, Ill.; Cat. 267462) collecting data every 50 seconds for approximately 30 minutes on an Envision plate reader (PerkinElmer, Inc. of Waltham, Mass.); Excitation 340 nm/Emission 495 nm. The data collected from each well was fit to a straight line and the resulting rates were used to calculate percent of control. Percent of control was plotted against compound concentration and IC50 values were determined using a four-parameter fit.

Sequence of human ERK-2 (Mitogen Activated Kinase 1) (P28482 8-360): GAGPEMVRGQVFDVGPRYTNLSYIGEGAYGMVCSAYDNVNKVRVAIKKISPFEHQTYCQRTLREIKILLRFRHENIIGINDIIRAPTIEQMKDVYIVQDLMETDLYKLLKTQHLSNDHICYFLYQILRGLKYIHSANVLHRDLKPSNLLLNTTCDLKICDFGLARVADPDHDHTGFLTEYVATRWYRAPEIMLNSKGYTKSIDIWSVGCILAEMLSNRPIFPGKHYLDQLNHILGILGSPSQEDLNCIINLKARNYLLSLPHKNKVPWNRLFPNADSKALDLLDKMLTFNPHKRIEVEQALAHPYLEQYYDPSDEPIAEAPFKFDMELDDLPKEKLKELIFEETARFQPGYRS

IC50 [2] [nM]	SMILES	IC50 [1] [nM]
1.4	Cn1cc(C(NC(=O)N2CCc3cnc(NC4CCOCC4)nc3C2)c2ccc(Cl)c(F)c2)cn1 (stereo not shown) [Compound I-5, N-((4-chloro-3-fluorophenyl)(1-methyl-1H-pyrazol-4-yl)methyl)-2-(tetrahydro-2H-pyran-4-ylamino)-5,6-dihydropyrido[3,4-d]pyrimidine-7(8H)-carboxamide]	47.3
1.5	O=C(NC(c1cn[nH]c1)c1ccc(Cl)c(F)c1)N1CCc2cnc(NC3CCOCC3)nc2C1 (stereo not shown) [Compound I-7, N-((4-chloro-3-fluorophenyl)(1H-pyrazol-4-yl)methyl)-2-(tetrahydro-2H-pyran-4-ylamino)-5,6-dihydropyrido[3,4-d]pyrimidine-7(8H)-carboxamide]	43.5
2.4	O=C(NC(c1ccc(Cl)c(F)c1)c1nnco1)N1CCc2cnc(NC3CCOCC3)nc2C1 (stereo not shown) [Compound I-9, N-((4-chloro-3-fluorophenyl)(1,3,4-oxadiazol-2-yl)methyl)-2-(tetrahydro-2H-pyran-4-ylamino)-5,6-dihydropyrido[3,4-d]pyrimidine-7(8H)-carboxamide]	71.7
4	O=C(N[C@@H](c1ccc(Cl)c(F)c1)c1ccno1)N1CCc2cnc(NC3CCOCC3)nc2C1 [Compound I-12, (S)—N-((4-chloro-3-fluorophenyl)(isoxazol-5-yl)methyl)-2-(tetrahydro-2H-pyran-4-ylamino)-5,6-dihydropyrido[3,4-d]pyrimidine-7(8H)-carboxamide]	235
1.6	C[C@@H](NC(=O)N1Cc2nc(NC3CCOCC3)ncc2C(F)(F)C1)c1ccc(Cl)c(Cl)c1 [Compound I-50, (R)—N-(1-(3,4-dichlorophenyl)ethyl)-5,5-difluoro-2-(tetrahydro-2H-pyran-4-ylamino)-5,6-dihydropyrido[3,4-d]pyrimidine-7(8H)-carboxamide]	28.3
5.3	COCC(=O)OC[C@@H](NC(=O)N1CCc2cnc(NC3CCOCC3)nc2C1)c1ccc(F)c(Cl)c1 [Compound I-56, (S)-2-(3-chloro-4-fluorophenyl)-2-(2-(tetrahydro-2H-pyran-4-ylamino)-5,6,7,8-tetrahydropyrido[3,4-d]pyrimidine-7-carboxamido)ethyl 2-methoxyacetate]	66.2

The remaining lines, values behind:

SMILES	IC50 [2] [nM]	IC50 [1] [nM]
CNC[C@@H](CC(=O)N1CCc2cnc(NC(C)C)nc2C1)c1ccc(Cl)c(F)c1 [Compound I-17, (S)-3-(4-Chloro-3-fluoro-phenyl)-1-(2-isopropylamino-5,8-dihydro-6H-pyrido[3,4-d]pyrimidin-7-yl)-4-methylamino-butan-1-one]	3.2	281
C[C@@H](CO)Nc1ncc2c(n1)CN(C(=O)N[C@H](C)c1ccc(Cl)c(F)c1)CC2 [Compound I-21, N—((R)-1-(4-chloro-3-fluorophenyl)ethyl)-2-((S)-1-hydroxypropan-2-ylamino)-5,6-dihydropyrido[3,4-d]pyrimidine-7(8H)-carboxamide]	1.6	55.2
C[C@@H](CO)Nc1ncc2c(n1)CN(C(=O)N[C@@H](c1ccc(Cl)c(Cl)c1)C(F)(F)F)CC2 [Compound I-23, N—((S)-1-(3,4-dichlorophenyl)-2,2,2-trifluoroethyl)-2-((S)-1-hydroxypropan-2-ylamino)-5,6-dihydropyrido[3,4-d]pyrimidine-7(8H)-carboxamide]	3.2	493
CCOc1cc(Nc2ncc3c(n2)CN(C(=O)N[C@H](C)c2ccc(Cl)c(Cl)c2)CC3)ccn1 [Compound I-35, (R)—N-(1-(3,4-dichlorophenyl)ethyl)-2-(2-ethoxypyridin-4-ylamino)-5,6-dihydropyrido[3,4-d]pyrimidine-7(8H)-carboxamide]	5.6	91.3
CC[C@@H](NC(=O)N1CCc2cnc(N[C@H]3CC[C@H](O)C3)nc2C1)c1ccc(C(F)(F)F)c(F)c1 [Compound I-37, N—((R)-1-(3-fluoro-4-(trifluoromethyl)phenyl)propyl)-2-((1S,3S)-3-hydroxycyclopentylamino)-5,6-dihydropyrido[3,4-d]pyrimidine-7(8H)-carboxamide]	4.8	93
